In test [1] the test system is H358 cells (ATCC CRL-5807). Nature of the test: Cell viability assay (CellTiter-Glo), H358 cells. The settings on record: Homo sapiens, NCI-H358, 48 h incubation, first value of the cell, read-out: Cell Viability (μM) H358 (concentration that decreases cell viability by 50%). Format: cell-based. The protocol:
(§1) Cells (A549 ATCC CCL-185) are cultured in Dulbecco's Modified Eagle's Medium plus 10% foetal calf serum and 2 mM L-glutamine at 37° C., 5% CO2. Cells are plated onto white clear bottom 96-well plates (5000 cells/well in 200 μl media) and left to adhere overnight at 37° C., 5% CO2. Next day, test compound (1 μl at 200× concentration in 100% DMSO) is added to give final test compound concentration 1× in 0.5% DMSO. After 48 h of incubation at 37° C., 5% CO2, 20 μl CellTiter-Glo reagent (Promega G7572) is added into each well. Plates are incubated at room temperature with shaking for 30 min and then luminescence is read using a PheraStar plate reader. The concentration of compounds that decrease cell viability by 50% is calculated from dose response curves generated using Dotmatics data analysis software.
In the H358 cell assay, cells (ATCC CRL-5807) are cultured in RPM-1640 medium plus 10% foetal calf serum and 2 mM L-glutamine at 37° C., 5% CO2.

Test [2] has as its system DLD1 cells (ATCC CCL-221). Nature of the test: Cell viability assay (CellTiter-Glo), DLD1 cells. Format: cell-based. The settings on record: Homo sapiens, DLD-1 cells, 48 h incubation, second value of the cell, read-out: Cell Viability (μM) DLD-1 (concentration that decreases cell viability by 50%). Here is the method: as §1
In the DLD1 cell assay, cells (ATCC CCL-221) are cultured in RPMI-1640 medium plus 10% foetal calf serum and 2 mM L-glutamine at 37° C., 5% CO2.

For test [3], the target named is T1, GST-human KRas166 (G12V) GPPNHP (Homo sapiens, UniProt P01116, G12V).
T1 construct: made in house; host or cells: E. coli C41(DE3)
Nature of the test: KRas small-molecule screening by SPR (BIACORE T200). Format: binding. The settings on record: compound at final concentration of 100 uM; immobilised GST-KRAS166 (G12V) GPPNHP, GST reference channel. The gist of the method: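 E. coli-expressed GST-KRas166 (G12V) was loaded with GPPNHP and captured on an anti-GST CM5 chip at 10,000–15,000 RU, with GST as the reference channel. Compounds were injected at 100 uM in buffer containing 100 mM NaCl, 5 mM MgCl2 and 5% DMSO, with solvent correction. Binding was measured by Biacore T200 SPR against a theoretical Rmax.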

For the compound `O=c1ccccn1CCN1CCN(C[C@@H]2COc3ccc(OCc4ccccc4)cc3O2)CC1` [Example 52, 1-{2-[4-((R)-7-Benzyloxy-2,3-dihydro-benzo[1,4]dioxin-2-ylmethyl)-piperazin-1-yl]-ethyl}-1H-pyridin-2-one], the figures for the IC50 in test [1] and in test [2] were above 100 µM and 15 µM, respectively. Further, the “SPR Response Units” value in test [3] turned out to be 70 Response Units.
In the same order, the values of `O=C(c1ncco1)N(C[C@@H]1COc2ccc(OCc3ccccc3)cc2O1)C1CCN(Cc2ccccc2)CC1` [Example 43, Oxazole-2-carboxylic acid ((R)-7-benzyloxy-2,3-dihydro-benzo[1,4]dioxin-2-ylmethyl)-(1-benzyl-piperidin-4-yl)-amide] are 20.8 µM, 18.5 µM and 35 Response Units.
`CN1CCN(Cc2cccc(CNC(=O)C3COc4ccc(OCc5ccccc5)cc4O3)c2)CC1` (stereo not drawn) [Example 62, 7-Benzyloxy-2,3-dihydro-benzo[1,4]dioxine-2-carboxylic acid 3-(4-methyl-piperazin-1-ylmethyl)-benzylamide]: the IC50 in test [1] turned out to be 42 µM; in test [2] it was 7 µM. The “SPR Response Units” value in test [3] worked out at 93 Response Units.
Consider `CN1CCN(Cc2ccc(C(=O)NC[C@@H]3COc4ccc(OCc5ccc(Cl)cc5)cc4O3)o2)CC1` [Example 24, 5-(4-Methyl-piperazin-1-ylmethyl)-furan-2-carboxylic acid [(R)-7-(4-chloro-benzyloxy)-2,3-dihydro-benzo[1,4]dioxin-2-ylmethyl]-amide], for which the IC50 in test [1] came to 49 µM; in test [2] it was 2.5 µM. Besides, in test [3], the “SPR Response Units” value was 226 Response Units.
Take `c1ccc(COc2ccc3c(c2)O[C@H](CNC2CCNCC2)CO3)cc1` [Example 45, ((R)-7-Benzyloxy-2,3-dihydro-benzo[1,4]dioxin-2-ylmethyl)-piperidin-4-yl-amine]: the IC50 came to 26.3 µM in test [1] and 9.6 µM in test [2]. Further, the “SPR Response Units” value in test [3] is 22 Response Units.
In the same order, the values of `Cc1cccc(COc2ccc3c(c2)O[C@H](CNC(=O)C2CCN(C)CC2)CO3)c1` [Example 28, 1-Methyl-piperidine-4-carboxylic acid [(R)-7-(3-methyl-benzyloxy)-2,3-dihydro-benzo[1,4]dioxin-2-ylmethyl]-amide] are 16.6 µM, 8.2 µM and 39 Response Units.
For the compound `CN1CCC(C(=O)NC[C@@H]2COc3ccc(OCc4ccccc4)cc3O2)CC1` [Example 1, 1-methyl-piperidine-4-carboxylic acid ((R)-7-benzyloxy-2,3-dihydro-benzo[1,4]dioxin-2-ylmethyl)-amide], the IC50 in test [1] amounted to 61 µM; in test [2], 13 µM. The “SPR Response Units” value in test [3] turned out to be 48 Response Units.

The values are drawn from US11724999B2, “Inhibitors of RAS-effector protein interactions” (Oxford University Innovation Limited, priority 2018, dated 2023).
